Values after ≈ are worked out from the molar mass of the structure shown. Counter-ions that a name gives are not always drawn.
Legend:
Solubility test in water = format: physicochemical; conditions: room temperature, stirred 24 hours
Protocol: The compounds of Examples 1 and 3 were chosen as test compounds.
The compound A was chosen as a comparative compound.
The test compounds and the comparative compound were each added to water, and each mixture was stirred at room temperature for 24 hours. The insoluble matter was removed by filtration using a membrane filter (0.2 μm). The filtrate was analyzed by HPLC to obtain solubility.

[1] = Storage stability test (1), open glass bottle, 2 weeks; format: physicochemical; conditions: for storage stability / Moisture content / Purity: open glass bottle; for storage stability / change of the purity and moisture content after storage: in words; for change of the purity and moisture content after storage: storage over 2 weeks
Protocol: (§1) The purities are represented in terms of area % measured by high performance liquid chromatography (HPLC). The HPLC measurement was performed by using Prominence (Shimadzu) under the following conditions.
Crystals of the compounds of Examples 1 and 3 were chosen as test substances.
Each test substance (200 mg) was put into a glass bottle of an open state, and stored for 2 weeks under the storage condition 1 (25° C., 75% relative humidity), or the storage condition 2 (40° C., 75% relative humidity). Purity and moisture content of the test substance were measured before the start of the test and after the end of the test.

MOLM-13 cells = assay: Leukemic cell growth inhibition test (MOLM-13); format: cell-based; conditions: MOLM-13, 72 hours culture, CellTiter-Glo
Protocol: (§2) A leukemic cell growth inhibition test was performed by using the leukemic cell strains MV4-11 (ATCC Number, CRL-9591) and MOLM-13 (DSMZ Number, ACC554).
(§3) The leukemic cell growth inhibition test was performed by the method described below.
(§4) For the purpose of measuring growth inhibition with a test compound, the total cell count was quantified on the basis of the total cellular ATP concentration using the CellTitet-Glo (PerkinElmer) reagent that enables quantification of ATP concentration based on the luciferin-luciferase reaction. The MOLM-13 or MV4-11 cells were added to the RPMI medium containing penicillin (100 units/mL), streptomycin (100 μg/mL), and 10% FBS at a density of 2×10^5 cells/ml, and 50 μL (10,000 cells) of the mixture was inoculated to each well of a 96-well plate (Corning).
(§5) A serially diluted solution of a test compound or 0.1% DMSO (solvent control) in a volume of 50 μL was added to the cells, and then the cells were cultured for 72 hours under the standard cell proliferation conditions (37° C., 5% CO2) to allow proliferation of the cells. In order to measure the total cell proliferation, equal volume of the CellTitet-Glo reaction mixture was added to each well in accordance with the instructions attached to CellTitet-Glo, and luminescence count was quantified (relative light unit, RLU).
(§6) The RLU signal observed for the DMSO solvent control after 72 hours of culture was defined as a signal indicating 0% inhibition, and the GI50 value for the growth inhibition corresponds to a concentration of a compound that provides 50% inhibition of the total cell proliferation observed in the DMSO solvent control. Each data point was obtained from samples prepared in duplicate. The GI50 values were calculated by the non-linear regression fitting (Fit Model (205)) according to a sigmoid dose-reaction equation using the XLfit software.

MV4-11 cells = assay: Leukemic cell growth inhibition test (MV4-11); format: cell-based; conditions: MV4-11, 72 hours culture, CellTiter-Glo
Protocol: as §2, §3, §4, §5, §6

[2] = Storage stability test (2), double plastic bag, 4 weeks; format: physicochemical
Protocol: as §1
The crystals of the compound of Example 1 were chosen as test substance.
The test substance (200 mg) was put into double plastic bag, and the opening was tied up. The bag was stored for 4 weeks under the storage condition 1 (25° C., 75% relative humidity), or the storage condition 2 (40° C., 75% relative humidity). Purity and moisture content of the test substance were measured before the start of the test and after the end of the test.

[3] = storage condition 1 (25° C., 75% relative humidity), 2 weeks
[4] = storage condition 2 (40° C., 75% relative humidity), 2 weeks
[5] = storage condition 1 (25° C., 75% relative humidity), 4 weeks
[6] = storage condition 2 (40° C., 75% relative humidity), 4 weeks

Structure (SMILES): CCCNc1nc(Nc2ccc(C#N)cc2)ncc1C#CCCCNC(=O)[C@H](C)N(C)C(=O)/C=C/CN(C)C [Compound A, (S,E)-N-(1-((5-(2-((4-cyanophenyl)amino)-4-(propylamino)pyrimidin-5-yl)pent-4-yn-1-yl)amino)-1-oxopropan-2-yl)-4-(dimethylamino)-N-methylbut-2-enamide]
- Solubility (Solubility test in water): 20 µg/mL (≈ 37.7 µM)

Structure (SMILES): CCCNc1nc(Nc2ccc(C#N)cc2)ncc1C#CCCCNC(=O)[C@H](C)N(C)C(=O)/C=C/CN(C)C [Example 1, succinate of the compound A]
- Solubility (Solubility test in water): 70000 µg/mL
- storage stability ([1]; 2 weeks): superior
- Moisture content ([1]; before start of test): 0.5%
- Purity ([1]; before start of test): 99.6%
- Moisture content [1, 3]: 0.2%
- Purity [1, 3]: 99.6%
- Moisture content [1, 4]: 0.2%
- Purity [1, 4]: 99.6%
- change of the purity and moisture content after storage [1]: little change
- GI50 (MOLM-13 cells; Homo sapiens, MOLM-13, 72 h): 1.47 nM
- GI50 (MV4-11 cells; Homo sapiens, MV4-11, 72 h): 0.52 nM
- Moisture content ([2]; before start of test): 0.2%
- Purity ([2]; before start of test): 99.4%
- Moisture content [2, 5]: 0.2%
- Purity [2, 5]: 99.4%
- Moisture content [2, 6]: 0.2%
- Purity [2, 6]: 99.4%

Structure (SMILES): CCCNc1nc(Nc2ccc(C#N)cc2)ncc1C#CCCCNC(=O)[C@H](C)N(C)C(=O)/C=C/CN(C)C [Example 2, succinate of the compound A]
- Moisture content ([1]; before start of test): 1.7%
- Purity ([1]; before start of test): 99.7%
- Moisture content [1, 3]: 3.2%
- Purity [1, 3]: 99.6%
- Moisture content [1, 4]: 2.1%
- Purity [1, 4]: 99.6%
- GI50 (MOLM-13 cells): 1.5 nM
- GI50 (MV4-11 cells): 0.6 nM

Structure (SMILES): CCCNc1nc(Nc2ccc(C#N)cc2)ncc1C#CCCCNC(=O)[C@H](C)N(C)C(=O)/C=C/CN(C)C [Example 3, fumarate of the compound A]
- Solubility (Solubility test in water): 890 µg/mL
- storage stability ([1]; 2 weeks): superior
- change of the purity and moisture content after storage [1]: little change
- GI50 (MOLM-13 cells): 1.6 nM
- GI50 (MV4-11 cells): 0.6 nM
